The subject of one assay is HUVECs. The assay is described as follows: HUVEC tube formation on matrigel. It is filed as cell-based. To be noted: Homo sapiens, 18-hour incubation, read-out: IC50 (μM), inhibition of tube formation. As for the experimental part:
HUVECs (1.5×10^4 cells/well) were placed in a 96-well matrigel-coated plate. Six doses of Fusion Protein 1 (0.1 μM, 0.3 μM, 1 μM, 3 μM, 10 μM, and 30 μM) and vehicle were added to each well in growth media under an atmosphere of 5% CO2 at 37° C. After an 18-hour incubation period, morphology of the endothelial cell tubes, which resemble a capillary-like network, were evaluated by photomicroscopy. Disruption (anti-angiogenesis) of total tube length was measured from each photograph and determined relative to the vehicle control group. […] Suramin was used as an anti-angiogenic positive control (Positive Control 5) for all studies.

In assay [1] the target is T1, integrin α5β1 (K562 cells) (Homo sapiens, UniProt P05556+P08648).
T1 construct: α5β1-expressing K562 cells to fibronectin; host or cells: K562 human erythroleukemia cells
T1 sequence (P08648 42-894 limits assumed): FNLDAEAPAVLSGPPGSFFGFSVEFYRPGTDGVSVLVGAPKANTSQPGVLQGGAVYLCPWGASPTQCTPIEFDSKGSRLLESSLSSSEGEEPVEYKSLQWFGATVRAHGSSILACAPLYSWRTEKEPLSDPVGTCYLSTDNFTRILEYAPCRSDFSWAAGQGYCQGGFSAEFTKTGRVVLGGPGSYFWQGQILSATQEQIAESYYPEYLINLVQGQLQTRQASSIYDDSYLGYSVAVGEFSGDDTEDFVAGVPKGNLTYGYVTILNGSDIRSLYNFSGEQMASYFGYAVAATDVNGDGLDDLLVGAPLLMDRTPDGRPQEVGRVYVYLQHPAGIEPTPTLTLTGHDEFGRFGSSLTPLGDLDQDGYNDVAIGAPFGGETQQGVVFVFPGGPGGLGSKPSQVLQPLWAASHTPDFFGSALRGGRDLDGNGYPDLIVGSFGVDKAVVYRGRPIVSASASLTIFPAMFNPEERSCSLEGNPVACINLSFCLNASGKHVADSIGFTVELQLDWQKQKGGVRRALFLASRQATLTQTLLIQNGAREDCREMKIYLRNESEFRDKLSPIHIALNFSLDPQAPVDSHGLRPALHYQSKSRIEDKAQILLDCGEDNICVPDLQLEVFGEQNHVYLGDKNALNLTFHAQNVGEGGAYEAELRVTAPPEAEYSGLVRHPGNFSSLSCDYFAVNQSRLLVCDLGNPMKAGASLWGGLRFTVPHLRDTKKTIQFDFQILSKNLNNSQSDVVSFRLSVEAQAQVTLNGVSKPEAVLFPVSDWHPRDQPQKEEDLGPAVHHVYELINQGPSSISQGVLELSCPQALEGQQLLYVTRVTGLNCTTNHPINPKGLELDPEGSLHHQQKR
T1 sequence (P08648 895-1049 limits assumed): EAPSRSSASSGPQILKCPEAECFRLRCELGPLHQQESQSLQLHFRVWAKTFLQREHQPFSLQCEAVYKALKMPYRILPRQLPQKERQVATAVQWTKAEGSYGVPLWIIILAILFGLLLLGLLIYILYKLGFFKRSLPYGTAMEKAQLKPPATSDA
T1 sequence (P05556 21-798): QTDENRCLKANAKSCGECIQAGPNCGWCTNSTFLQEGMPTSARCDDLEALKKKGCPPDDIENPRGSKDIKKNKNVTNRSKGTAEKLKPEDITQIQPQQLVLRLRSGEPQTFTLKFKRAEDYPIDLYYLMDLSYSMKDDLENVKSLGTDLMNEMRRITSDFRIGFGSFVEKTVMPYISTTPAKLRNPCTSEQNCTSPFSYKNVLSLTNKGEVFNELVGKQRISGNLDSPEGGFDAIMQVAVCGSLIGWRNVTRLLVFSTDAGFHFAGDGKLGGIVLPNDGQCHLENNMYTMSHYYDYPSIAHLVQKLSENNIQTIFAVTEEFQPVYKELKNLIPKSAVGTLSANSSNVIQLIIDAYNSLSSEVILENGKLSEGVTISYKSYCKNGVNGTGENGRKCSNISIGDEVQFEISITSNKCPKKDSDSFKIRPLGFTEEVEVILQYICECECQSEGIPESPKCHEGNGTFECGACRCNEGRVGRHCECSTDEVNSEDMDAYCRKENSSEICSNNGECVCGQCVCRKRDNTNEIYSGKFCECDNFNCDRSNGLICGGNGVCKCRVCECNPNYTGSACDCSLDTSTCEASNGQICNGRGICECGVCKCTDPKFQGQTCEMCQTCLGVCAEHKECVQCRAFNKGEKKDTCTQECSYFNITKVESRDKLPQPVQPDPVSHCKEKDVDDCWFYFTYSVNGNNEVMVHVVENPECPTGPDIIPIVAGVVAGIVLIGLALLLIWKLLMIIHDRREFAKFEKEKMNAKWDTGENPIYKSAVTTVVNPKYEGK
The assay is described as follows: Adhesion of α5β1-expressing K562 cells to fibronectin. It is filed as cell-based. To be noted: K562 cell adhesion to fibronectin. As for the experimental part:
(§1) The adhesion of αvβ3-overexpressing CHO cells to fibrinogen and α5β1-expressing K562 cells to fibronectin were evaluated in the presence of fusion proteins.
(§2) 96-well Immulon-2 microtiter plates (Costar, Corning, NY) were coated with 100 μL of phosphate-buffered saline (PBS: 10 mM phosphate buffer, 0.15 M NaCl, pH 7.4) containing substrates at a concentration of 50-500 nM, and incubated overnight at 4° C. The substrates and their coating concentrations were fibrinogen (Fg) at 200 μg/mL and fibronectin (Fn) at 25 μg/mL. Non-specific protein binding sites were blocked by incubating each well with 200 μL of heat-denatured 1% bovine serum albumin (BSA) (Calbiochem) at room temperature for 1.5 hours. The heat-denatured BSA was discarded and each well was washed twice with 200 μL of PBS.
(§3) CHO cells that expressed the integrin αvβ3 (CHO-αvβ3) from the same source of Patent Application No. PCT/US2015/46322 were maintained in DMEM. Human erythroleukemia K562 was maintained as written in Patent Application No. PCT/US2015/46322 from ATCC and cultured in Roswell Park Memorial Institute (RPMI)-1640 medium containing 5% FCS. […] Bound cells were quantified by crystal violet staining. […] The resulting absorbance was read at 600 nm and the readings were correlated with the number of adhering cells. […]

The subject of assay [2] is integrin αvβ3 (CHO-αvβ3 cells). The assay is described as follows: Adhesion of αvβ3-overexpressing CHO cells to fibrinogen. To be noted: CHO-αvβ3 cell adhesion to fibrinogen. It is filed as cell-based. The protocol:
as §1, §2, §3

In another assay the target is integrin αvβ3 (Homo sapiens, UniProt P05106+P06756). The assay is described as follows: Competitive binding ELISA of soluble integrin αvβ3 to vitronectin. To be noted: vitronectin-coated plate. As for the experimental part: The competitive binding was used to measure the binding affinity of Fusion Protein 1 of the invention to integrin αvβ3.
Sequence of integrin αvβ3 (P06756 31-889 limits assumed): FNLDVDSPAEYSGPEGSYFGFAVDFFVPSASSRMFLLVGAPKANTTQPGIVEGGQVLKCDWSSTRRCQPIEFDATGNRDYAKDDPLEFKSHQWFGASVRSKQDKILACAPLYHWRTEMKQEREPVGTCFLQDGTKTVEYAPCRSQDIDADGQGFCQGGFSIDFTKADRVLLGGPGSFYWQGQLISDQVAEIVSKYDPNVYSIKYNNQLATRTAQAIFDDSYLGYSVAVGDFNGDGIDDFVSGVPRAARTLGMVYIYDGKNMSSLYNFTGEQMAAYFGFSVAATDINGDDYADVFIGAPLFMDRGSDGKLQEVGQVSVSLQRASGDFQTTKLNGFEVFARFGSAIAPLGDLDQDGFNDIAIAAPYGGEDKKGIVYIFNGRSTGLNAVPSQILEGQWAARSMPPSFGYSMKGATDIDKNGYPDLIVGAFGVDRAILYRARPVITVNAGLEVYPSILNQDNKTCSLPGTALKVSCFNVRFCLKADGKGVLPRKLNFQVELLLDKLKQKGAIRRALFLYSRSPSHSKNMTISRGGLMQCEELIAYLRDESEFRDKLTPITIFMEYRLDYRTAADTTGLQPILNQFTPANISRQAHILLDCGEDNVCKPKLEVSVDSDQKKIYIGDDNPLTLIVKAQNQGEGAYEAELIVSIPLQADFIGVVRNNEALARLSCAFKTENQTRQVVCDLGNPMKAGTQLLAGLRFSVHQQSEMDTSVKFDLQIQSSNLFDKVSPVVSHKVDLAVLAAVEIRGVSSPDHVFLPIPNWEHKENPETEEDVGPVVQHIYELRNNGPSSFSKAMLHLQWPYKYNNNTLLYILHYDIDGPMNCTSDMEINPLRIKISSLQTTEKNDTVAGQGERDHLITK
Sequence of integrin αvβ3 (P06756 891-992 limits assumed): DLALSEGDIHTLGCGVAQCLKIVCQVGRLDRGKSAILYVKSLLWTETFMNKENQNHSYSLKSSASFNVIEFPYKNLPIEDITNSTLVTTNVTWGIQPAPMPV
Sequence of integrin αvβ3 (P05106 27-718 limits assumed): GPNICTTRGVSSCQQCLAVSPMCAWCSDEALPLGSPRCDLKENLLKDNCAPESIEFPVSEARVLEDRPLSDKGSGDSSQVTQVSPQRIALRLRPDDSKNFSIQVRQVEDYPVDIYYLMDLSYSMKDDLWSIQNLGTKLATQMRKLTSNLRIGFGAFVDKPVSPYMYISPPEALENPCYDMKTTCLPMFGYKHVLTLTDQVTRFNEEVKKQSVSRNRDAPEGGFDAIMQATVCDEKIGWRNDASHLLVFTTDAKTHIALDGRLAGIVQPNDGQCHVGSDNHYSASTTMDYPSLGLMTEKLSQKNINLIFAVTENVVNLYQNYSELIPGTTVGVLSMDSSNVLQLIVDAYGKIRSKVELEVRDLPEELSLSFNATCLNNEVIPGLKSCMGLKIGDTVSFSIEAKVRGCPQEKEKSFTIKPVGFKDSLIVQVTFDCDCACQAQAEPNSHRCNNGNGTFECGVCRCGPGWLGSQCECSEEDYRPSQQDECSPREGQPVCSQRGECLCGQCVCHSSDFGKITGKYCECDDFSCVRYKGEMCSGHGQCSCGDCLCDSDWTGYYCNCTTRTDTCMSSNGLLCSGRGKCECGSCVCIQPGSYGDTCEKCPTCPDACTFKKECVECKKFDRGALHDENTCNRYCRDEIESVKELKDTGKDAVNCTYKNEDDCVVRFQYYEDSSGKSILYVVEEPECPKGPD
1 μg/mL victronectin dissolved in coating solution were added to each well of a 96-well ELISA plate, and the plate was incubated overnight at 4° C. The wells were washed twice with PBS buffer, and excess liquid was carefully removed with a paper towel.
Blocking solution (5 g non-fat skim milk in 100 mL 1×PBS) were added to each well, and the plate was incubated at room temperature for 1 hour. The wells were washed twice with 1×PBS buffer.
One hundred microliters […] of the serially diluted samples were added to each well. The plate was covered and incubated on a plate shaker (˜100 rpm) for 1 hour at room temperature. The wells were washed three times with wash buffer (1×PBS, 0.05% Tween-20).
Diluted primary anti-integrin αv antibody was added and incubated, then washed. Horseradish peroxidase-conjugated goat anti-human IgG Fc specific antibodies in blocking solution were added to each well. […]
The optical density (OD) of each well was determined using an ELISA plate reader at an absorbance wavelength of 450 nm. The absorbance was plotted against the protein concentration of the fusion protein or the control, and the concentration at which the signal was half the maximal inhibition concentration (IC50) was determined.
(In an ELISA, binding on a coated surface is turned into a signal by an enzyme label.)

The target of the next assay is T2, human VEGF165 (Homo sapiens, UniProt P15692).
T2 sequence (P15692 27-191 isoform P15692-4): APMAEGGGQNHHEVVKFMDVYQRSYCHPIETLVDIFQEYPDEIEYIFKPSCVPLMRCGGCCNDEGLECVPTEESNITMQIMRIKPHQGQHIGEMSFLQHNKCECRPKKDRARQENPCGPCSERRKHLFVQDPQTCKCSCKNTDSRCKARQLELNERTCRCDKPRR
The assay is described as follows: Direct binding ELISA to human VEGF165. To be noted: coated VEGF165 1 μg/mL, read-out: EC50 (nM), binding affinity to VEGF165. As for the experimental part:
A direct binding enzyme-linked immunosorbent assay (ELISA) was used to measure the binding affinity of fusion proteins of the invention to human VEGF165, a splice variant of VEGF-A.
100 μL of a coating solution (1 μg/mL VEGF165 in 1× phosphate buffered saline (PBS), pH 7.2) were added to each well of a 96-well ELISA plate, and the plate was incubated overnight at 4° C. The wells were washed twice with 400 μL of 1×PBS buffer, and excess liquid was carefully removed with a paper towel.
400 μL of a blocking solution (5 g non-fat skim milk in 100 mL 1×PBS) were added to each well, and the plate was incubated at room temperature for 1 hour. The wells were washed twice with 1×PBS buffer.
Fusion protein and control samples were serially diluted three-fold in blocking solution, with a highest protein concentration of 10 nM. 100 μL of the serially diluted samples were added to each well. The plate was covered and incubated on a plate shaker (˜100 rpm) for 1 hour at room temperature. The wells were washed three times with wash buffer (1×PBS, 0.05% Tween-20). […]
The optical density (OD) of each well was determined using an ELISA plate reader at an absorbance wavelength of 450 nm. The absorbance was plotted against the protein concentration of the fusion protein or the control, and the concentration at which the signal was half the maximal effective concentration (EC50) was determined.

In assay [3] the test system is VEGF-induced leakage in Dutch Belted Rabbits. The assay is described as follows: Dose-response VEGF-induced retinal leakage in Dutch Belted rabbits (Example 9). To be noted: FA scale 0 (normal) to 4 (severe). It is filed as in vivo. As for the experimental part: Fusion proteins of the invention were tested in an in vivo model of retinal vascular permeability at varying doses to determine their dose-response effectiveness in preventing vascular leakage. In this model, human VEGF165 was intravitreally injected to the vitreous of rabbit eyes to induce retinal leakage.
On Day 1, Dutch Belted rabbits were intravitreally injected with Fusion Protein 1 according to an embodiment of the invention at various doses, vehicle (negative) control, or reference (positive) controls. Vascular leakage was induced by injecting exogenous VEGF165 into the same eyes on Day 3.
FAs were conducted on all dosage groups 3 days after the VEGF-induction (Day 6) to assess leakiness and tortuosity using a scale from 0 (normal) to 4 (severe).
Signs of ocular irritation were scored using the Draize scoring system prior to fusion protein dosing, VEGF induction, and assessments. According to the Draize analysis, all of the rabbit eyes were normal prior to the initiation of dosing. […] There were no drug-related findings evident during the course of the study.

Assay [4] shares this test system. The assay is described as follows: VEGF-induced retinal leakage in Dutch Belted rabbits (Example 8). It is filed as in vivo. To be noted: FA scale 0 (normal) to 4 (severe). As for the experimental part: Fusion proteins of the invention were tested in an in vivo model of vascular permeability to determine their efficacy in preventing vascular leakage. In this model, VEGF was intravitreally injected to the vitreous of rabbit eyes to induce uncontrolled retinal leakage. Aflibercept (Eylea®, Regeneron), a recombinant fusion protein consisting of portions of human VEGFR1 and VEGFR2 fused to the Fc portion of human IgG1, and bevacizumab (Avastin®, Roche), a recombinant humanized monoclonal antibody that blocks angiogenesis by inhibiting VEGF-A were included as Positive Controls 2 and 6, respectively.
Dutch Belted rabbits were anesthetized using isoflurane (3-5%), and their eyes were treated with ophthalmic Betadine solution. The rabbits' eyes were then washed with sterile saline, and lidocaine hydrochloride (2% injectable) or proparacaine (0.5%) was applied to the ocular surface.
On Day 1, Dutch Belted rabbits were intravitreally injected with fusion proteins of the invention, vehicle (negative) control, or reference (positive) controls at predetermined doses using a BD 300 μL insulin syringe (31 ga× 5/16 inch). […]
Signs of ocular irritation were scored using the Draize scoring system prior to fusion protein dosing, VEGF induction, and assessments. […]

Assay [5] deals with human umbilical vein endothelial cell (HUVEC). The assay is described as follows: VEGF165-induced HUVEC proliferation assay (MTS). To be noted: VEGF165 8 ng/mL, 72 hours, read-out: IC50 (nM), inhibition of cell proliferation. It is filed as cell-based. The protocol: A human umbilical vein endothelial cell (HUVEC) proliferation assay was carried out to test the functionality of the fusion proteins of the invention. A commercially available VEGF Trap, aflibercept (Eylea®, Regeneron), was included as Positive Control 2.
100 μL of a coating solution (1% gelatin in double distilled water) were added to each well of a 96-well ELISA plate, and the plate was incubated for 2 hours or overnight at 37° C. The wells were washed twice with 1×PBS buffer.
3500 counts of human umbilical vein endothelial cells in endothelial cell growth medium were added to each well, and the plate was incubated overnight at 37° C.
Fusion protein samples were diluted in assay buffer (Medium-199 1× Earle's Salts, 10% fetal bovine serum, 10 mM HEPES, lx antibiotic/antimycotic), with a highest protein concentration of 300 nM. The fusion protein samples were mixed with VEGF165 (8 ng/mL), and the mixtures were incubated overnight at room temperature. The wells were then washed with 200 μL of 1×PBS.
100 μL of the VEGF165/sample mixture were added to each well, and the plates were incubated for 72 hours at 37° C. with 5% CO2. […]
The OD of each well was determined using an ELISA plate reader at an absorbance wavelength of 490 nm. […]

Data on four molecules can be found in patent publication US12152057B2, “Fusion proteins for inhibiting angiogenesis” (priority 2015, dated 2024).

With `Cc1ccc(C(=O)Nc2ccc(S(=O)(=O)O)c3cc(S(=O)(=O)O)cc(S(=O)(=O)O)c23)cc1NC(=O)c1cccc(NC(=O)Nc2cccc(C(=O)Nc3cc(C(=O)Nc4ccc(S(=O)(=O)O)c5cc(S(=O)(=O)O)cc(S(=O)(=O)O)c45)ccc3C)c2)c1` [Positive Control 5, Suramin], the IC50 in the assay with HUVECs was 15.8 µM.
As to Rhodostomin [Positive Control 3], the IC50 in assay [1] was 252 nM; in assay [2], 24.7 nM; with integrin αvβ3 it was 2.6 to 3.2 nM.
Consider aflibercept [Positive Control 2], for which, in the assay with human VEGF165, the EC50 (usually the concentration needed to bring the measured effect to its halfway point) was in the range of 0.088 to 0.195 nM. The “Day 6 Mean Leakage Score” value in assay [3] (Example 9, intravitreal dose 625 μg) is on record as 0; in assay [4] (Example 8, intravitreal dose 625 μg), 0. In assay [5], the IC50 is 0.026 to 0.136 nM.
Regarding bevacizumab [Positive Control 6], the “Day 6 Mean Leakage Score” value in assay [3] (Example 9, intravitreal dose 1250 μg) was 0.17; in assay [4] (Example 8, intravitreal dose 1250 μg) it was 0.25.
